Laboratory results reported in patent US20050019420A1, “Fungicide composition comprising pyrimethanil and at least a phosphorous acid derivative and use thereof for fighting against plant diseases” (priority 2001, published 2005).

Test system: Venturia inaequalis
Test: Apple tree scab field trial, preventive spray programme
Assay type: in vivo
Details: for % of leaves attacked: apple tree Rome Beauty
Excerpt: Apple Tree—Venturia inaequalis
The following fungicides are compared: • Pyrimethanil at the dose of 20 g/hl and mixtures. • fosetyl-Al+pyrimethanil at the doses of 50+20 and 100+20 g/hl applied in a plant protection mixture volume of 1 200 l/ha.
The products are applied to an apple tree (Rome Beauty variety) which is sensitive to Venturia inaequalis.
The various products to be studied are sprayed every 7, 10 or 13 days (9, 7 and 6 applications in total respectively) in a program of treatment starting on 28 Mar. 2001.
Scores are awarded for the disease (% foliar surface area destroyed) on 14 May and 11 Jun. 2001. The results are expressed as % of leaves attacked.

Q: How did the “% of leaves attacked” value (dose (20), sprayed every 7 days (9 applications), scored 11 June 2001) turn out when `Cc1cc(C)nc(Nc2ccccc2)n1` [Pyrimethanil, pyrimethanil] was run?
A: 27.7%

Q: And the “% of leaves attacked” value (dose (20), sprayed every 7 days (9 applications), scored 14 May 2001)?
A: 14.7%

Q: What about the “% of leaves attacked” value (dose (200), sprayed every 10 days (7 applications), scored 11 June 2001) of the same molecule?
A: 33%

Q: What about the “% of leaves attacked” value (dose (200), sprayed every 10 days (7 applications), scored 14 May 2001) of the same molecule?
A: 16.2%

Q: And the “% of leaves attacked” value (dose (200), sprayed every 13 days (6 applications), scored 11 June 2001)?
A: 32%

Q: And the “% of leaves attacked” value (dose (200), sprayed every 13 days (6 applications), scored 14 May 2001)?
A: 16.3%

Q: With `CCO[PH](=O)O` [fosetyl-AI, monoethyl ester-phosphonate-aluminum] as the molecule, how does the “persistence of the action of pyrimethanil” value (addition of fosetyl-Al to pyrimethanil, applications every 10 to 13 days compared with weekly applications) read?
A: improve the persistence of the action of pyrimethanil
